According to PMC6816246, “A Novel Substrate Radiotracer for Molecular Imaging of SIRT2 Expression and Activity with Positron Emission Tomography” (Molecular imaging and biology, 2018):

Biological target: T1, SIRT2 (Homo sapiens, UniProt Q8IXJ6)
T1 sequence (Q8IXJ6 2-389): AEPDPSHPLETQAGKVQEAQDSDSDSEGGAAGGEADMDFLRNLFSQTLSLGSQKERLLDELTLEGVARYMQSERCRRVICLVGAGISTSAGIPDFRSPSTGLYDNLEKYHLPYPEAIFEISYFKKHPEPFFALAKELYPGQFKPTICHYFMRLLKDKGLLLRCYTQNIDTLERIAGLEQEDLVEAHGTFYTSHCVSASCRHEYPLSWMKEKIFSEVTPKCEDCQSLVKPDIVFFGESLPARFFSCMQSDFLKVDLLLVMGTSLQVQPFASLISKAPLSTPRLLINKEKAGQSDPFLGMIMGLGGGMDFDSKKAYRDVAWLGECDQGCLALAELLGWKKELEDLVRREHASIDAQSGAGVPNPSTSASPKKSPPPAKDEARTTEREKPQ
Test: fluorogenic enzyme kinetics with recombinant SIRT2 (Km)
Type: biochemical

Substance | Km [µM]
Boc-Lys(3-F-propanoyl)-AMC [compound 1] | 55.5
Boc-Lys(6-F-hexanoyl)-AMC [compound 2] | 44.9
Boc-Lys(10-F-decanoyl)-AMC [compound 3] | 18
Boc-Lys(12-F-dodecanoyl)-AMC [compound 4] | 8.07
Boc-Lys(myristoyl)-AMC [compound 5] | 2.36
